# Key:
# cardiomyocytes = experiment: Cardiomyocyte proliferation effect assay (Edu / cTnI immunofluorescence of heart tissue), adult female SD rats; type: in vivo; conditions: tail vein injection 7 consecutive days, IGF1-24 100 μg/kg or molar equivalents, FIG. 1-2
# Experimental: In certain embodiments, adult female SD rats were divided into five groups: PBS group, IGF1 group, IGF1Ec group, IGF1-24 group, and IGF1+IGF1Ec24 peptide group, with three rats in each group. The rats in each group were distinguished by ear clipping for subsequent protein injection according to the different body weights of the rats.
# The rats in each group were injected with PBS, IGF1, IGF1Ec24 peptide, IGF1Ec and IGF1-24 for 7 consecutive days. Recombinant protein IGF1-24 was injected at 100 μg/kg, and the injection of the remaining proteins in each group was converted according to the molar amount of IGF1-24 injection as follows: 90 μg/kg for IGF1, 8.9 μg/kg for IGF1Ec24 peptide, 104 μg/kg for IGF1Ec.
# Before protein injection, the rats were first weighed with a bench scale, and their body weight and the amount of protein injected were recorded and converted; then the rats were fixed with a rat fixator and their tails were exposed, and their tails were soaked in hot water for 1-2 min to stretch the tail vessels and facilitate the search for blood vessels; then the tails were wiped with alcohol cotton balls; after the tail vein was identified, the needle was inserted into the vessel at a 45° angle to the tail vein and the drug was slowly pushed in; the needle before pressing the wound with cotton to stop the bleeding, and then pull out the needle. […]
# myocardial tissue = experiment: Myocardial injury repair in rat model of isoproterenol (ISO) myocardial injury; type: in vivo
# Experimental: The rats were randomly selected and assigned into injection and control groups, with three rats in each group. The myocardial injury model was constructed by injecting an overdose of ISO at a dose of 80 mg/kg. The rats were fixed with a fixator to expose the abdomen; the rats were disinfected by wiping with alcohol cotton balls, and the amount of ISO injected was matched to their body weight, and then the rats were injected intraperitoneally for 1 week.
# The rat was fixed with a fixator to keep its tail naturally down; before injection, the rat's tail was soaked in warm water for 3-4 min until the tail vein was seen clearly; then the rat's tail was wiped with an alcohol cotton ball for disinfection; then, when injecting the protein, the needle was injected at a minimal angle to the tail vein to keep it horizontal; after pushing the drug into the blood vessel, the wound was pressed with an alcohol cotton ball, and then the needle was withdrawn.
# In order to fully remove the paraffin from the top of the slices, Paraffin sections of myocardial tissues were completely immersed in xylene twice, each time for 15 min; then the paraffin sections of cardiac tissues were placed into 100% ethanol solution, 95% ethanol solution, 75% ethanol solution, 50% ethanol solution and 3dH2O in turn, with a soaking time of 10 min for each gradient. The paraffin sections were removed and hematoxylin was added dropwise at the myocardial tissue in the sections for nuclear staining with a staining time of 8 min. immediately after the staining was completed, the sections were rinsed with tap water for 5 min, then differentiation solution was added dropwise at the myocardial tissue in the sections with a differentiation time of 20 s, and finally the sections were rinsed with tap water for 5 min. the sections were removed and eosin staining solution was added dropwise at the tissue with a staining time of 1 min, and finally the sections were rinsed with tap water Rinse the slices for 5 min. soak the paraffin sections according to a gradient of 50%, 75%, 95% and 100% ethanol, each for 5 min; then soak them twice in xylene for 2 min/time. Paraffin sections were removed from xylene, keeping xylene still retained on the sections; neutral gum was quickly added dropwise, and coverslips were picked up with forceps, and the coverslips were put down slowly.
# The sections were soaked in xylene twice for 15 min/time; soaked sequentially according to a gradient of anhydrous ethanol, 95%, 75% and 50% alcohol solutions, each gradient for 5 min; finally the sections were soaked in triple distilled water for 5 min. equal amounts of Weigert iron hematoxylin A solution and B solution were mixed, and the mixture was added dropwise to the tissues, stained The sections were removed, and differentiation solution was added dropwise to the myocardial tissue for 20 s, and rinsed with tap water for 5 min. bluing solution was added dropwise to the tissue of the sections, and returned to blue treatment for 5 min, and rinsed with tap water for 5 min. lixin red magenta staining solution was added dropwise to the tissue of the sections, and staining time was 1 min, and rinsed with tap water for 5 min. 20% of Add phosphomolybdic acid solution dropwise on the tissue, stain for 5 min, pour off the phosphomolybdic acid solution on the section. Aniline blue staining solution was added dropwise for 5 min to re-stain the sections, and the aniline blue solution on the sections was poured off. […]
substance,measurement,setting,value
"IGF1-24: 97 amino acids: amino-terminal 70 identical to IGF1, carboxyl-terminal 24 identical to IGFEc24 peptide, joined by three Gly linkers (SEQ ID NO: 4)",number of Edu-positive cardiomyocytes,cardiomyocytes,2.6%
same,Masson staining: area of cardiac fibrosis,"myocardial tissue; ISO+IGF1-24-treated group vs ISO-injured group, FIG. 12",significantly reduced
same,HE staining of cardiac tissue: repair effect,"myocardial tissue; ISO+IGF1-24 group compared with ISO+PBS group, FIG. 10",the repair effect was obvious
same,rate of PH3 positive cells in myocardial tissue,"myocardial tissue; after ISO injury and IGF1-24 treatment, injury without treatment 0.1%, FIG. 13A-B",0.8%
same,rate of Edu positive cells in myocardial tissue,"myocardial tissue; after ISO injury and IGF1-24 treatment, injury without treatment 0.5%, FIG. 13A-B",1.4%
same,number of Ki67-positive cells (immunohistochemistry of heart tissue),"myocardial tissue; treatment group vs injury group, FIG. 13C",differed significantly

# Source: patent US20230073755A1, “USE OF IGF1 IN COMBINATION WITH IGFEC24 IN PREPARATION OF MEDICINE FOR PROMOTING TISSUE REPAIR AND REGENERATION” (Chongqing University, priority 2020, published 2023)
